According to ChEMBL document CHEMBL1152405, “Bis-anthracenyl isoxazolyl amides have enhanced anticancer activity” (Bioorg Med Chem Lett, 2009):
pIC50: −log10 of the molar value.

Columns and labels:
Format in all cases: functional, cell-based
[1] = tested on: SNB-19; test: Antitumor activity against human SNB19 cells after 2 hrs; conditions: SNB-19, 2 h
[2] = tested on: SNB-19; test: Antitumor activity against human SNB19 cells after 24 hrs; conditions: SNB-19, 24 h
[3] = tested on: SNB-19; test: Antitumor activity against human SNB19 cells after 48 hrs; conditions: SNB-19, 48 h

## Cc1onc(-c2c3ccccc3c(Cl)c3ccccc23)c1C(=O)NCCCN(C)CCCNC(=O)c1c(-c2c3ccccc3c(Cl)c3ccccc23)noc1C
[1]
  pIC50: 3.94
[2]
  pIC50: 4.62
[3]
  pIC50: 4.52
